Measurements from article PMC7182431, “CNGA3 acts as a cold sensor in hypothalamic neurons” (eLife, 2020).

Key:
Format in all cases: cell-based
sqCNGA3 (squirrel CNGA3) = molecular target: T1, sqCNGA3 (squirrel CNGA3) (Ictidomys tridecemlineatus, UniProt A0A6H2E3H4); test: inside-out patch clamp, HEK293T, Hill fit
T1 construct: pMO vector, no tag stated; HEK293T (PIEZO1-deleted) cells, also Xenopus oocytes; homomer
T1 sequence (A0A6H2E3H4 1-672): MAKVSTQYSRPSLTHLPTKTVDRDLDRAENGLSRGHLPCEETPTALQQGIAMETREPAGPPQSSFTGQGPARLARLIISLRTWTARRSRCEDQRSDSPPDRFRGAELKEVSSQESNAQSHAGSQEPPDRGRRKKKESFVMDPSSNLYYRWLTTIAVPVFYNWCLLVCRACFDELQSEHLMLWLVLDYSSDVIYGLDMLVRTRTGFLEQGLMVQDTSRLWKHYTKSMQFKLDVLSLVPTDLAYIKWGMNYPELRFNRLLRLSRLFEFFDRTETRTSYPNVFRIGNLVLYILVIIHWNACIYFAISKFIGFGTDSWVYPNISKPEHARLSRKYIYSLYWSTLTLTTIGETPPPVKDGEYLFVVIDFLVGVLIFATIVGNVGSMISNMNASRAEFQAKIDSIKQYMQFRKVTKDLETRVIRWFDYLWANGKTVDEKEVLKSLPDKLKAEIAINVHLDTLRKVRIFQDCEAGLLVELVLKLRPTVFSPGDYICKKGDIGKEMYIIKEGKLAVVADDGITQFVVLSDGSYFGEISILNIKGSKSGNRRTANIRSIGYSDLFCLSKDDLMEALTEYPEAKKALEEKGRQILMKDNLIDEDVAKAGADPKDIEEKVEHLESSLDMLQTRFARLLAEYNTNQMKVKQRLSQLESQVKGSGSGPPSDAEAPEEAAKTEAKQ

mCNGA3 (mouse CNGA3) = molecular target: T2, mCNGA3 (mouse CNGA3) (Mus musculus, UniProt A0A6H2E2T0); test: inside-out patch clamp, HEK293T, Hill fit
T2 construct: HEK293T (PIEZO1-deleted) cells, also Xenopus oocytes; homomer
T2 sequence (A0A6H2E2T0 1-630): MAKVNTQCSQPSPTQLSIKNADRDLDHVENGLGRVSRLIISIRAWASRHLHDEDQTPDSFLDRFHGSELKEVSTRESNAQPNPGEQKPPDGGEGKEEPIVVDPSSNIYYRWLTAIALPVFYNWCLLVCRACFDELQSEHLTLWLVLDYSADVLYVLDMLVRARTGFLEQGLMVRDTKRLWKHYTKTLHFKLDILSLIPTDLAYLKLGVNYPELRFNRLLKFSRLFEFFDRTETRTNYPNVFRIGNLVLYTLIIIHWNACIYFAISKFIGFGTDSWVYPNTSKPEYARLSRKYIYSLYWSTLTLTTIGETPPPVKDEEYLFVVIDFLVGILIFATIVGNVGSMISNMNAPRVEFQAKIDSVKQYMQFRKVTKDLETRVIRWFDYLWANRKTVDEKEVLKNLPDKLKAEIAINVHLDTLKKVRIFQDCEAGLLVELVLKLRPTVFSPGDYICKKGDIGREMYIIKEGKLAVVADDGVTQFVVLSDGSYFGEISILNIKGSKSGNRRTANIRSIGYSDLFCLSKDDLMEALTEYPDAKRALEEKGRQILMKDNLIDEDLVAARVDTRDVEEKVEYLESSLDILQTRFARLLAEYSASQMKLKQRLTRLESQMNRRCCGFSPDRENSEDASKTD

[1] = molecular target: T3, CNGA3-CNGB1 heteromers (mCNGA3 with mCNGB1) (Mus musculus, UniProt A0A6H2E2T0+E1AZ71); test: voltage clamp, Xenopus oocytes, inhibition of cold-activated current; conditions: 100 µM extracellular drug, 1 µM intracellular cGMP, -80 mV, cooling; inhibitor; mixed with CNGA3 homomers
T3 construct: full-length subunits co-expressed in Xenopus oocytes from pMO vector; mixture with CNGA3 homomers likely
T3 sequence (E1AZ71 whole entry, one chain of several): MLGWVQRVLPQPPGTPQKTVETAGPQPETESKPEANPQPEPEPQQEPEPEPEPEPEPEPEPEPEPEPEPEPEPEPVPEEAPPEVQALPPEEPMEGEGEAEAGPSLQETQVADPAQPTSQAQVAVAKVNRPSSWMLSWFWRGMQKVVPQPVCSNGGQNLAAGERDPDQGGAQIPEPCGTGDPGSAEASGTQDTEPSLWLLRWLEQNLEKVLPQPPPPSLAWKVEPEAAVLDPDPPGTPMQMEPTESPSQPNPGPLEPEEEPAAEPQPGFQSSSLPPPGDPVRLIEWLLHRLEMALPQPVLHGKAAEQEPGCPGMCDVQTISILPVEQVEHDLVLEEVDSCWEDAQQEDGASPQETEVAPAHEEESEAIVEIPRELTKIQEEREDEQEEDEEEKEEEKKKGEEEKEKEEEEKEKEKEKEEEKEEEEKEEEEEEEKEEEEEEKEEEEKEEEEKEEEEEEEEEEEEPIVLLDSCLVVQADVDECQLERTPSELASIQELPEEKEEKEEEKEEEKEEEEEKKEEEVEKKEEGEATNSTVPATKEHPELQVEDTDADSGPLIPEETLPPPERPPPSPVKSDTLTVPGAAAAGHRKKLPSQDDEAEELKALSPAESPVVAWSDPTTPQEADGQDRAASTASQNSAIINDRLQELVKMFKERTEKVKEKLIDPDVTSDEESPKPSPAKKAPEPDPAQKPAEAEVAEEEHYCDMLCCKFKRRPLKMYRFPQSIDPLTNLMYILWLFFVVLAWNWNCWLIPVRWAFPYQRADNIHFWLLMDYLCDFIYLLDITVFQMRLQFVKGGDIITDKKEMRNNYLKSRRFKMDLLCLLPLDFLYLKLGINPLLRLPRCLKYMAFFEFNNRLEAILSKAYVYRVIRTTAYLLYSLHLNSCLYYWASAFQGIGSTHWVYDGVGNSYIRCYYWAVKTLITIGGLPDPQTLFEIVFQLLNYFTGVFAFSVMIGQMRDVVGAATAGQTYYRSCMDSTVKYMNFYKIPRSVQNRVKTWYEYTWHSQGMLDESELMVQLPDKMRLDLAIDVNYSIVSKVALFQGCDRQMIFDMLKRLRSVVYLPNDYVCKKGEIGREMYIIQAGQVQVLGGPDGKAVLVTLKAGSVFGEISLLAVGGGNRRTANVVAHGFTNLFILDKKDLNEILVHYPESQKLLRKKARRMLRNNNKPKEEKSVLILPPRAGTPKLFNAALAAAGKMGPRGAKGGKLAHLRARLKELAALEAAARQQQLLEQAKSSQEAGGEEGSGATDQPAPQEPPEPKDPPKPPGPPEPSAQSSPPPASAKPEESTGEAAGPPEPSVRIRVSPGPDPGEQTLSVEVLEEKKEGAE

EC50 (sqCNGA3 (squirrel CNGA3)) [µM]	EC50 (mCNGA3 (mouse CNGA3)) [µM]	Compound	inhibition [1]
26.4 ± 1.12	21.8 ± 5.48	Nc1nc2c(ncn2[C@@H]2O[C@@H]3COP(=O)(O)O[C@H]3[C@H]2O)c(=O)[nH]1 [cGMP]	–
–	–	COc1ccc([C@H]2Sc3ccccc3N(CCN(C)C)C(=O)[C@H]2OC(C)=O)cc1 [l-cis-diltiazem]	CNGA3-CNGB1 heteromers can form a cold-activated l-cis-diltiazem-sensitive ion channel
